The record followed here is US10144746B2 (GLOBAL BLOOD THERAPEUTICS, INC., priority 2015, dated 2018).

Structures can show the parent of a compound that is named as a salt.

In the first test the target is Human plasma kallikrein (Homo sapiens (Human), UniProt P03952). Description: In vitro plasma kallikrein inhibition assay (chromogenic substrate D-Pro-Phe-Arg-pNa, absorbance at 405 nm, IC50 determination). Type of test: biochemical.
Sequence of Human plasma kallikrein (P03952 391-638): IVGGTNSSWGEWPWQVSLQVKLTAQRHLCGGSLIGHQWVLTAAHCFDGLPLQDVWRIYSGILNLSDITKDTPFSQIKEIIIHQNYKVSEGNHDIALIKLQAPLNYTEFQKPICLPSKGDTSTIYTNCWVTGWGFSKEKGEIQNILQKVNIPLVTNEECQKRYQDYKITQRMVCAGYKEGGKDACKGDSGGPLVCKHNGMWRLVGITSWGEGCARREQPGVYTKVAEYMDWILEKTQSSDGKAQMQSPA
Sequence of Human plasma kallikrein (P03952 20-390 partner): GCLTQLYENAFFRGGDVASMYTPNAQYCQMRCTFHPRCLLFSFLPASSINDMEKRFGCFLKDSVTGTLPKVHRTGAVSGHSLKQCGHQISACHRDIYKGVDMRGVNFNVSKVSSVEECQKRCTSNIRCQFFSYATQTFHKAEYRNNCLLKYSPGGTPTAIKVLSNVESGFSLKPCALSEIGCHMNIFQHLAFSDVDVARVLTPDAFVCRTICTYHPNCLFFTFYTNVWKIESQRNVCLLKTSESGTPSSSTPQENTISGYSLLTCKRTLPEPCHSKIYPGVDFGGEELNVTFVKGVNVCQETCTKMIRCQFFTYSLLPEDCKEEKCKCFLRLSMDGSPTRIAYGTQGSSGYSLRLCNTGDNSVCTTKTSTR
Settings: not given
The method, then: In Vitro Plasma Kallikrein Inhibition Assay
The chromogenic substrate D-Pro-Phe-Arg-pNa, 2HCl (BIOPHEN CS-31(02) from Hyphen BioMed, Neuville-Sur-oise, France) was dissolved in 5 mL deionized water and stored at 4° C. […] All other chemicals were of analytical grade.
A stock solution of 7 μM in 50% glycerol was stored at −20° C.
Enzyme reactions were conducted in “assay buffer” comprised of 20 mM HEPES at pH 7.4, 150 mM NaCl, 0.1% PEG-8000 and 0.01% Triton X-100.
Both enzyme and substrate were diluted in assay buffer.
Plate measurements were conducted using a SPECTROStar Nano reader (BMG Labtech, San Francisco, Calif., USA). […] We used discrete wavelength, precise, kinetic reads of 15 cycles with a 60 sec cycle time.
Determination of IC50 values
The test compound was dissolved in 100% DMSO. The compounds were serially diluted in DMSO in a 7 point dose response. For the assays, 66.5 μL of protease solution (protease in assay buffer) was added per well followed by the addition of 8.5 μL of compound in 100% DMSO. […] After 30 min. incubation at room temperature on an orbital shaker, the reactions were started by the addition of 10 μL substrate solution (in assay buffer, final assay concentration was 600 uM). After the addition of the substrate solution the final DMSO concentration was 10%. The plate was placed again on the shaker for 5 sec, spun at 2000 rpm for 5 sec and read on the spectrophotometer. […] The IC50 value was calculated from the plot of rate vs. inhibitor concentration by a 4 parameter logistic equation: y=A+((B−A)/([…]))
where y is the rate at the inhibitor concentration, x. A is the minimum y value at the highest inhibitor concentration and B is the y value in the absence of inhibitor, C is the IC50 value and D is the slope factor. The curve fitting was conducted with the non-linear regression routine of the analysis software XLfit (IDBS, version 5.3.1).
Regarding `Cc1cc(N)nc(C)c1CNC(=O)c1ccc2c(c1)C1OC2c2ccc(-c3ccccc3F)cc21` (stereo not shown), the “KLKB1 pIC50” value is listed as 6.91.
Same read-out and setting: as for `Cc1cc(N)nc(C)c1CNC(=O)c1ccc2c(c1)C1OC2c2cc(N3CCN(C(=O)c4ccccc4)CC3)ccc21` (stereo not shown), the figure is 6.55; as for `Cc1cc(N)nc(C)c1CNC(=O)c1ccc2c(c1)C1OC2c2ccc(Br)cc21` (stereo not shown), 6; as for `Cc1c(CNC(=O)c2ccc3c(c2)C2OC3c3ccc(-c4cccc(F)c4F)cc32)c(F)cc2c1CNC2` (stereo not shown), 5.
Still for that read-out and setting: as for `Cc1cc(N)nc(C)c1CNC(=O)c1ccc2c(c1)[C@H]1O[C@@H]2c2ccc(-c3ccc(F)cc3F)cc21`, the figure is 4.44.

Staying with this test, now noted: read-out: KLKB1 pIC50 (converted).
As to `Cc1cc2c(c(C)c1CNC(=O)c1ccc3c(c1)C1OC3c3ccc(-c4ccc(F)cc4F)cc31)CNC2` (racemic), the IC50 was 316 nM.
On the same count and under the same terms, as for `Cc1cc(N)nc(C)c1CNC(=O)c1ccc2c(c1)C1OC2c2ccccc21` (racemic) [Example 1], the figure is 6310 nM.
`Cc1cc(N)nc(C)c1CNC(=O)c1ccc2c(c1)C1OC2c2ccc(C[N+]3([O-])CCOCC3)cc21` (racemic) [Example 50]: the IC50 is 3550 nM.
As for `Cc1cc(N)nc(C)c1CNC(=O)c1ccc2c(c1)C1OC2c2ccc(Nc3ccn(C)n3)cc21` (racemic) [Example 51], the IC50 was 933 nM.
Same read-out and setting: the result for `Cc1cc(N)nc(C)c1CNC(=O)c1ccc2c(c1)C1OC2c2cc(Nc3ccnn3C)ccc21` (racemic) [Example 54] reads 457 nM; that for `Cc1cc(N)nc(C)c1CNC(=O)c1ccc2c(c1)C1OC2c2ccc(-c3ccc(F)cc3C#N)cc21` (racemic) [Example 69], 6.31 nM.
Same read-out and setting: as for `Cc1cc2c(c(C)c1CNC(=O)c1ccc3c(c1)C1OC3c3ccc(-c4cccc(F)c4F)cc31)CNC2` (racemic) [Example 100, trifluoroacetate salt], the figure is 6170 nM; as for `Cc1cc(N)nc(C)c1CNC(=O)c1ccc2c(c1)C1OC2c2ccc(-c3ccc(F)c(F)c3F)cc21` (racemic) [Example 104], 28.2 nM.
Still for that read-out and setting: the result for `COc1cc(N)nc(C)c1CNC(=O)c1ccc2c(c1)C1OC2c2ccc(-c3ccc(C)cc3C#N)cc21` (racemic) [Example 105] reads 15.1 nM.
As for `Cc1cc(N)nc(C)c1CNC(=O)c1ccc2c(c1)C1OC2c2ccc(-c3ccc(Cl)c(F)c3F)cc21` (racemic) [Example 106], the IC50 was 22.9 nM.
For the compound `Cc1cc(N)nc(C)c1CNC(=O)c1ccc2c(c1)C1OC2c2ccc(-c3ccc(F)c4c3OCO4)cc21` (racemic) [Example 108, trifluoroacetate salt], the IC50 is 25.7 nM.
Still for that read-out and setting: the result for `Cc1cc(N)nc(C)c1CNC(=O)c1ccc2c(c1)C1OC2c2ccc(-c3ncccc3F)cc21` (racemic) [Example 110, trifluoroacetate salt] reads 162 nM.
Still for that read-out and setting: the result for `Cc1cc(N)nc(C)c1CNC(=O)c1ccc2c(c1)C1OC2c2ccc(-c3ncc(F)cc3F)cc21` (racemic) [Example 116, (±)-N-[(6-amino-2,4-dimethylpyridin-3-yl)-methyl]-12-(3,5-difluoropyridin-2-yl)-15-oxatetracyclo[6.6.1.0^2,^7.0^9,1^4] pentadeca-2,4,6,9,11,13-hexaene-4-carboxamide] reads 45.7 nM; that for `COc1cc(N)nc(C)c1CNC(=O)c1ccc2c(c1)C1OC2c2ccc(Cn3cccn3)cc21` (racemic) [Example 117, (±)-N-[(6-amino-4-methoxy-2-methylpyridin-3-yl)methyl]-12-[(1H-pyrazol-1-yl)methyl]-15-oxatetracyclo[6.6.1.0^2,^7.0^9,1^4] pentadeca-2,4,6,9,11,13-hexaene-4-carboxamide], 3.98 nM.
Still for that read-out and setting: the result for `Cc1ccc(-c2ccc3c(c2)C2OC3c3ccc(C(=O)NCc4c(C)cc(N)nc4C)cc32)c(F)c1F` (racemic) [Example 118, (±)-N-[(6-amino-2,4-dimethylpyridin-3-yl)-methyl]-12-(2,3-difluoro-4-methylphenyl)-15-oxatetracyclo[6.6.1.0^2,^7.0^9,1^4] pentadeca-2,4,6,9,11,13-hexaene-4-carboxamide] reads 64.6 nM.
Turning to `Cc1cc(N)nc(C)c1CNC(=O)c1ccc2c(c1)C1OC2c2ccc(-c3ccc(C(F)(F)F)c(F)c3F)cc21` (racemic) [Example 119, (±)-N-[(6-amino-2,4-dimethylpyridin-3-yl)-methyl]-12-[2,3-difluoro-4-(trifluoromethyl)-phenyl]-15-oxatetracyclo[6.6.1.0^2,^7.0^9,1^4] pentadeca-2,4,6,9,11,13-hexaene-4-carboxamide], the IC50 is 427 nM.
Same read-out and setting: as for `Cc1cc(N)nc(C)c1CNC(=O)c1ccc2c(c1)C1OC2c2ccc(Oc3ccc(F)cc3F)cc21` (racemic) [Example 120, (±)-N-[(6-amino-2,4-dimethylpyridin-3-yl)-methyl]-12-(2,4-difluorophenoxy)-15-oxatetra-cyclo[6.6.1.0^2,^7.0^9,1^4] pentadeca-2,4,6,9,11,13-hexaene-4-carboxamide], the figure is 676 nM; as for `Cc1cc(N)nc(C)c1CNC(=O)c1ccc2c(c1)C1OC2c2ccc(-c3ccc(F)c(C(F)(F)F)c3)cc21` (racemic) [Example 121, (±)-N-[(6-amino-2,4-dimethylpyridin-3-yl)-methyl]-12-[4-fluoro-3-(trifluoromethyl)phenyl]-15-oxatetracyclo [6.6.1.0^2,^7.0^9,1^4]pentdeca-2,4,6,9,11,13-hexaene-4-carboxamide], 437 nM; as for `Cc1cc(N)nc(C)c1CNC(=O)c1ccc2c(c1)C1OC2c2ccc(Oc3ccc(F)c(F)c3)cc21` (racemic) [Example 122, (±)-N-[(6-amino-2,4-dimethylpyridin-3-yl)-methyl]-12-(3,4-difluorophenoxy)-15-oxatetracyclo[6.6.1.0^2,^7.0^9,1^4] pentadeca-2,4,6,9,11,13-hexaene-4-carboxamide], 148 nM.
For `Cc1cc(N)nc(C)c1CNC(=O)c1ccc2c(c1)C1OC2c2ccc(-c3ccc4[nH]cnc4c3)cc21` (racemic) [Example 123, (±)-N-[(6-amino-2,4-dimethylpyridin-3-yl)-methyl]-12-(1H-1,3-benzodiazol-5-yl)-15-oxatetracyclo[6.6.1.0^2,^7.0^9,1^4] pentadeca-2,4,6,9,11,13-hexaene-4-carboxamide], the IC50 is 282 nM.
Consider `Cc1cc2c(c(C)c1CNC(=O)c1ccc3c(c1)C1OC3c3ccc(-c4c(C)cccc4F)cc31)CNC2` (racemic) [Example 124, (±)-N-[(4,6-dimethyl-2,3-dihydro-1H-isoindol-5-yl)methyl]-12-(2-fluoro-6-methylphenyl)-15-oxatetracyclo[6.6.1.0^2,^7.0^9,1^4] pentadeca-2,4,6,9,11,13-hexaene-4-carboxamide], for which the IC50 was 11500 nM.
The same measure, in the same setting: as for `Cc1cc(CN)cc(C)c1CNC(=O)c1ccc2c(c1)C1OC2c2ccc(-c3ccc(Cl)c(F)c3F)cc21` (racemic) [Example 125, (±)-N-{[4-(aminomethy])-2,6-dimethylphenyl]-methyl}-12-(4-chloro-2,3-difluorophenyl)-15-oxatetracyclo-[6.6.1.0^2,^7.0^9,1^4]pentadeca-2,4,6,9,11,13-hexaene-4-carboxamide], the figure is 661 nM; as for `C#Cc1ccccc1-c1ccc2c(c1)C1OC2c2ccc(C(=O)NCc3c(C)cc(N)nc3C)cc21` (racemic) [Example 126, (±)-N-[(6-amino-2,4-dimethylpyridin-3-yl)-methyl]-12-(2-ethynylphenyl)-15-oxatetra-cyclo[6.6.1.0^2,^7.0^9,1^4]pentadeca-2,4,6,9,11,13-hexaene-4-carboxamide], 6310 nM; as for `COc1ccc(-n2cnnn2)c(CNC(=O)c2ccc3c(c2)C2OC3c3ccc(-c4ccc(F)cc4F)cc32)c1` (racemic) [Example 127, (±)-12-(2,4-difluorophenyl)-N-{[5-methoxy-2-(1H-1,2,3,4-tetrazol-1-yl)phenyl]methyl}-15-oxatetracyclo[6.6.1.0^2,^7.0^9,1^4] pentadeca-2,4,6,9,11,13-hexaene-4-carboxamide], 977 nM.
On the same count and under the same terms, as for `Cc1cc(N)nc(C)c1CNC(=O)c1ccc2c(c1)C1OC2c2ccc(-c3cccc(S(C)(=O)=O)c3)cc21` (racemic) [Example 128, (±)-N-[(6-amino-2,4-dimethylpyridin-3-yl)-methyl]-12-(3-methanesulfonylphenyl)-15-oxatetracyclo[6.6.1.0^2,^7.0^9,1^4] pentadeca-2,4,6,9,11,13 hexaene-4-carboxamide], the figure is 933 nM.
Turning to `COc1ccc(-n2cnnn2)c(CNC(=O)c2ccc3c(c2)C2OC3c3ccc(-c4ccc(F)cc4F)cc32)c1F` (racemic) [Example 129, (±)-12-(2,4-difluorophenyl)-N-{[2-fluoro-3-methoxy-6-(1H-1,2,3,4-tetrazol-1-yl)phenyl]-methyl}-15-oxatetracyclo [6.6.1.0^2,^7.0^9,1^4]-pentadeca-2,4,6,9,11,13-hexaene-4-carboxamide], the IC50 is 234 nM.
